One experiment concerns the target Dipeptidyl peptidase 2 (Homo sapiens, UniProt Q9UHL4). Briefly: Inhibition of human recombinant DPP7 expressed in baculovirus-infected Sf9 cells by fluorescence plate reader method.
Another experiment addresses Dipeptidyl peptidase 9 (Homo sapiens, UniProt Q86TI2).

In ChEMBL document CHEMBL1153009, “Synthesis and evaluation of structurally constrained imidazolidin derivatives as potent dipeptidyl peptidase IV inhibitors” (Eur J Med Chem, 2009) one finds IC50 data, which are given here for one compound.

The structures appear in SMILES notation.

Dipeptidyl peptidase 9, sequence (Q86TI2 whole entry): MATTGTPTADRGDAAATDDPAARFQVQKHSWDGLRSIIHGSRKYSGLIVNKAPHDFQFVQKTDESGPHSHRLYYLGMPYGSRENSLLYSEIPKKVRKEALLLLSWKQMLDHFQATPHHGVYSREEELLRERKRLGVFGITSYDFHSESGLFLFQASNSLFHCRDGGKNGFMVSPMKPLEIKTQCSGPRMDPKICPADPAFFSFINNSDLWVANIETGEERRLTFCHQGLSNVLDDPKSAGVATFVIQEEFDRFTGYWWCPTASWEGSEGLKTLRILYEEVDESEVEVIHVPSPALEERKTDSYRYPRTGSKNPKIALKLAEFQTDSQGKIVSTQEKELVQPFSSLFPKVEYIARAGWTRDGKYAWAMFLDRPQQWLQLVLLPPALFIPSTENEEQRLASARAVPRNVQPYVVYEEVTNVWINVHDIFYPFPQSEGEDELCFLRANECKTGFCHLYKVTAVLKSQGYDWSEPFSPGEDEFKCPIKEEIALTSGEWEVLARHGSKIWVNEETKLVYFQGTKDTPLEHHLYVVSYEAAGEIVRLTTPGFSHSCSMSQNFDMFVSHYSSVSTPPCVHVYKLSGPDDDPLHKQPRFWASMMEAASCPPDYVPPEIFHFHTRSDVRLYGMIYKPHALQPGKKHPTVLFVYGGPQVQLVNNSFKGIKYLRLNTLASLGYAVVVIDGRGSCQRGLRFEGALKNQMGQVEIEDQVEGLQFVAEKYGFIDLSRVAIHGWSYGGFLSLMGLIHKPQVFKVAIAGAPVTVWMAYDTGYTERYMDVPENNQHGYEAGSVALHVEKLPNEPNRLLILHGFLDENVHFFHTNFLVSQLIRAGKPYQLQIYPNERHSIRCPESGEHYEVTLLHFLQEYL

Regarding `COc1ccc(N2CCN(CCNCC(=O)N3CCCC3C#N)C2=O)cc1OC` (single isomer, unassigned), the concentration for half-maximal inhibition (IC50) on Dipeptidyl peptidase 2 and against Dipeptidyl peptidase 9 was more than 100 µM throughout.
